Measurements published in patent US7316913B2, “Methods and means for influencing intracellular communication and intracellular organelle transport” (Stiftelsen Universitetsforskning Bergen, priority 2001, dated 2008).

What was measured:
[1] = tested on: VP22 intercellular exchange; details: destruction of the filamentary actin; cited from earlier work
[2] = tested on: TNTs between PC12 cells; assay type: cell-based, rat
[3] = tested on: PC12 cells; assay: Thymidin G1/S cell cycle block: mitosis stadia and TNT formation; assay type: cell-based, rat; details: 2.5 mM thymidin, 14 hours before passage; analysed ca. 1 hour after passage
Method: FIG. 12a—fluorescence microscopy image of PC12 cells ca. 1 hour after cell passage and staining with WGA, 20 minutes fixing in 4% paraformaldehyde/4% sucrose, 3 minutes treatment with 0.2% TRITON™ X-100 and nucleus staining with Dapi—left images in (a): the 14 hour long treatment of the cells before passage with 2.5 mM thymidin in the cell culture medium blocked the cells in the G1/S phase of the cell cycle and prevented a division of the cells; right images in (a): in non-treated PC12 cells (controls) there can be observed in the nucleus staining mitosis stadia (arrows). Despite the absence of mitosis stadia the thymidin treated PC12 cells form TNTs (arrow tips), (bar: 20 micrometer);
Via a three-dimensional videomicroscopic analysis of suprarenal medulla cells in accordance with Example 1 point 2a, b there was detected the formation of an organized TNT based network between the cells, via which a syncytium arises (FIGS. 2e, f, FIGS. 3n-q2, FIGS. 4a-c) and organelles can be unidirectionally transferred (FIGS. 4d-h, FIG. 14). TNTs were, in accordance with Example 16 found in all to date investigated cells structure systems such as PC12 cells, HEK cells (FIG. 16a) and primary cultures of the medulla (FIG. 16b) and of the hippocampus (FIG. 16c). With a special colouring method, moreover, very long TNTs have been found. […]

[4] = tested on: TNTs between PC12 cells; assay: Number of TNTs in PC12 cells after cholesterol extraction (WGA staining, three-dimensional microscopy); assay type: cell-based, rat; details: half an hour, 2 h after passage, vs saccharose controls
[5] = tested on: PC12 cells; assay: Filipin staining of cellular cholesterol content; assay type: cell-based, rat; details: 5 millimolar methyl-β-cyclodextrin; filipin fluorescence, mean grey scale values
Method: FIG. 18—the effect of cholesterol on the stability of TNTs. Two hours after passage of PC12 cells, the cell culture medium was exchanged for DMEM with 5, 8 or 10 millimolar saccharose (controls) or DMEM with 5, 8 or 10 mM methyl-β-cyclodextrin and the cells incubated for half an hour at 30° C. and 10% CO2. After the addition of WGA a three-dimensional analysis of 10 randomly selected microscopic fields was carried out (Olympus IX70, 100× objective, […]™ System, Piezo-z-stepper, in each case 40 sections) and the number of TNTs determined. […] Quantifications yielded a strong reduction of the TNT number with increasing methyl-β-cyclodextrin concentration; 40% reduction at 5 millimolar methyl-β-cyclodextrin; 93% reduction at 8 millimolar methyl-β-cyclodextrin; 100% at 10 millimolar methyl-β-cyclodextrin (c1). […] For this purpose, the methyl-β-cyclodextrin or saccharose containing DMEM of the analysed cell was exchanged with DMEM having 20 microgramm per millilitre filipin and 15 minutes later the intensity of the fluorescence staining analysed in vivo with a FITC/TRITC/DAPI filter set (Chroma, Brattleboro). In detail, after excitation at 400 nm four randomly selected microscopic fields were imaged and the mean grey scale values determined. […]

Compound: C=C1[C@@H](C)[C@H]2[C@H](Cc3ccccc3)NC(=O)[C@]23[C@H](OC(C)=O)/C=C/[C@@](C)(O)C(=O)[C@@H](C)C/C=C/[C@H]3[C@@H]1O [cytochalasin D]
- intercellular exchange of VP22 [1]: can be prevented

Compound: C/C1=C/C(=O)O[C@@H]2C[C@@H](CC[C@H](C)/C=C\CC1)O[C@@](O)([C@@H]1CSC(=O)N1)C2 [latrunculin B]
- effect on TNT formation and on TNTs present [2]: TNTs no longer form and TNTs present are destroyed

Compound: Cc1cn([C@H]2C[C@H](O)[C@@H](CO)O2)c(=O)[nH]c1=O [thymidin]
- TNT formation retained in comparison with the controls [3]: 86.5%
- number of mitosis stadia in comparison with the controls [3]: 20%

Compound: methyl-β-cyclodextrin
- reduction of the TNT number ([4]; 8 millimolar methyl-β-cyclodextrin in DMEM): 93%
- reduction of the TNT number ([4]; 10 millimolar methyl-β-cyclodextrin in DMEM): 100%
- reduction of the cellular cholesterol content [5]: 20%
